Patent US8741914B2, “Antiviral compounds and uses thereof” (priority 2009, dated 2014)

Key:
[1] = test system: genotype 1b-Con1 subgenomic replicon cell line; assay: HCV Polymerase Replicon Assay (genotype 1b-Con1); type: cell-based; conditions: Hepatitis C virus, 72 h; 1b-Con1 replicon, luciferase reporter, 5% FBS, three days
[2] = target: T1, HCV polymerase 1B (Δ21 NS5B, BK) (Hepatitis C virus genotype 1b, UniProt P26663); assay: HCV Polymerase Inhibition Assay (1b); type: biochemical
T1 construct: 20 to 50 nM Δ21 NS5B
Description: (§1) The reaction was initiated by the addition of 20 μM CTP, 20 μM ATP, 1 μM ^3H-UTP (10 mCi/μmol), 5 nM template RNA and 0.1 U/μL RNase inhibitor (RNasin, Promega), and allowed to proceed for 2 to 4 hours at room temperature. Reaction volume was 50 μL. The reaction was terminated by the addition of 1 volume of 4 mM spermine in 10 mM Tris-Cl pH 8.0, 1 mM EDTA. After incubation for at least 15 minutes at room temperature, the precipitated RNA was captured by filtering through a GF/B filter (Millipore) in a 96 well format. The filter plate was washed three times with 200 μL each of 2 mM spermine, 10 mM Tris-Cl pH 8.0, 1 mM EDTA, and 2 times with ethanol. After air-drying, 30 μL of Microscint 20 scintillation cocktail (Packard) was added to each well, and the retained cpm were determined by scintillation counting. […] Retained cpm were plotted vs. inhibitor concentration and fit to equation 1 using non-linear regression (ref. 1) to obtain the IC50 values: Retained cpm=A[sqrt{(IC50+It−Et)^2+4*IC50*Et}−(IC50+It−Et)] (equation 1) where A=Vmax[S]/2(Km+[S]); It=total inhibitor concentration and Et=total active concentration of enzyme.
(§2) Ref. Morrison, J. F. and S. R. Stone. 1985. Approaches to the study and analysis of the inhibition of enzymes by slow- and tight-binding inhibitors. Comments Mol. Cell. Biophys. 2: 347-368.
(§3) The sequence of the template RNA used was: 5′-[…] […] […] […] […] […] […] […] […] […] […] […] […] […] […] […] […]-3′ (SEQ ID NO: 1).

[3] = target: T2, HCV polymerase 1A (Δ21 NS5B, H77) (Hepatitis C virus genotype 1a, UniProt P27958); assay: HCV Polymerase Inhibition Assay (1a); type: biochemical
T2 construct: 20 to 50 nM Δ21 NS5B
Description: as §1, §2, §3

[4] = test system: genotype 1a-H77 subgenomic replicon cell line; assay: HCV Polymerase Replicon Assay (genotype 1a-H77); type: cell-based; conditions: Hepatitis C virus, 72 h; 1a-H77 replicon, luciferase reporter, 5% FBS, three days

T2 sequence (P27958 2421-2990, stated change not applied): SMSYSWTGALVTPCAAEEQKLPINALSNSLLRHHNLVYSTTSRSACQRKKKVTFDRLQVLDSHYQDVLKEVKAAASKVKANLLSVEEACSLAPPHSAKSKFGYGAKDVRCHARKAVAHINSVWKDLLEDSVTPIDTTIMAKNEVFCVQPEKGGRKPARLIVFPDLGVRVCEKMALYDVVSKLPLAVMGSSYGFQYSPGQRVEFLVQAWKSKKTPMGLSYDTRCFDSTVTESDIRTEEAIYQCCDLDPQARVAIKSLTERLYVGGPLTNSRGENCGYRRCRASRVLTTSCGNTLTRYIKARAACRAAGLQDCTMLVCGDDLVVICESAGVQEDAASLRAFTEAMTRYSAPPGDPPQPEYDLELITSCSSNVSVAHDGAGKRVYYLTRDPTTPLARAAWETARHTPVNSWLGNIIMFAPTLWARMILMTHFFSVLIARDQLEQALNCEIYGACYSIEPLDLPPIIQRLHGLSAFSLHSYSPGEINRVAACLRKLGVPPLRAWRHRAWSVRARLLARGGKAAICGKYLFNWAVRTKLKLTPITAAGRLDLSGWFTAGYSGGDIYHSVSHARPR
T1 sequence (P26663 2420-2989, stated change not applied): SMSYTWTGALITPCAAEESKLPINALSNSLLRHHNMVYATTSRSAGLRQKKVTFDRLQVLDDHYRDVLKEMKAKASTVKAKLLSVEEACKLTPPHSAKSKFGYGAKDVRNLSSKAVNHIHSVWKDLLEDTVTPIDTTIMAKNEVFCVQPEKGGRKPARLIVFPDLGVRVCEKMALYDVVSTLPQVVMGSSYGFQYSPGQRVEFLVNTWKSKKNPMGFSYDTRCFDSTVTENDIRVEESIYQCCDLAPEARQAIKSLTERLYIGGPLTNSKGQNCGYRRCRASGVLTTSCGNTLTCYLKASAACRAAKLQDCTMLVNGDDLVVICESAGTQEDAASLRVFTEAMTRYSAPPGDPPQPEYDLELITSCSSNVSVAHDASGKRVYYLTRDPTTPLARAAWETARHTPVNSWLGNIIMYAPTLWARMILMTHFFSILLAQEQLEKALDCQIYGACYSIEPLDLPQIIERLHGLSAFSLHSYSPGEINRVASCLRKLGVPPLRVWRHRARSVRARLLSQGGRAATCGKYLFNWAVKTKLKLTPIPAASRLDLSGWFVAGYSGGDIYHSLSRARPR

Compound: COc1c(C(C)(C)C)cc(-n2ccc(=O)[nH]c2=O)c2cccnc12 [Compound 1, 1-(7-tert-butyl-8-methoxyquinolin-5-yl)pyrimidine-2,4(1H,3H)-dione]
- EC50 [1]: ≤ 10 nM
- IC50 [2]: 10 to 100 nM
- IC50 [3]: 10 to 100 nM
- EC50 [4]: 100 to 1000 nM

Compound: COc1c(C(C)(C)C)cc(-n2ccc(=O)[nH]c2=O)c2ccc(-c3ccc(NS(C)(=O)=O)cc3)nc12 [Compound 2, N-(4-(7-tert-butyl-5-(2,4-dioxo-3,4-dihydropyrimidin-1(2H)-yl)-8-methoxyquinolin-2-yl)phenyl)methanesulfonamide]
- IC50 [2]: > 1000 nM
- IC50 [3]: > 1000 nM

Compound: CC(C)(C)c1cc(-n2ccc(=O)[nH]c2=O)cc2c(Nc3ccc(NS(C)(=O)=O)cc3)ncnc12 [Compound 5, N-(4-(8-tert-butyl-6-(2,4-dioxo-3,4-dihydropyrimidin-1(2H)-yl)quinazolin-4-ylamino)phenyl)methanesulfonamide]
- EC50 [1]: 100 to 1000 nM
- IC50 [2]: 10 to 100 nM
- IC50 [3]: 10 to 100 nM
- EC50 [4]: > 1000 nM

Compound: CC1(C)CC(=O)Oc2c1cc(N1CCC(=O)NC1=O)c1ccccc21 [Compound 4, 1-(4,4-dimethyl-2-oxo-3,4-dihydro-2H-benzo[h]chromen-6-yl)dihydropyrimidine-2,4(1H,3H)-dione]
- IC50 [2]: 100 to 1000 nM
- IC50 [3]: > 1000 nM

Compound: CC1(C)COc2c(-c3ccc4cc(NS(C)(=O)=O)ccc4c3)cc(-n3ccc(=O)[nH]c3=O)cc21 [Compound 3, N-(6-(5-(2,4-dioxo-3,4-dihydropyrimidin-1(2H)-yl)-3,3-dimethyl-2,3-dihydrobenzofuran-7-yl)naphthalen-2-yl)methanesulfonamide]
- EC50 [1]: 10 to 100 nM
- IC50 [2]: 10 to 100 nM
- IC50 [3]: < 10 nM
- EC50 [4]: 100 to 1000 nM

Compound: CC(C)(C)c1cc(-n2ccc(=O)[nH]c2=O)cc2c(Nc3cc(CNS(C)(=O)=O)cs3)ncnc12 [Compound 7, N-((5-(8-tert-butyl-6-(2,4-dioxo-3,4-dihydropyrimidin-1(2H)-yl)quinazolin-4-ylamino)thiophen-3-yl)methyl)methanesulfonamide]
- EC50 [1]: 100 to 1000 nM
- IC50 [2]: < 10 nM
- IC50 [3]: 10 to 100 nM
- EC50 [4]: > 1000 nM

Compound: CC(C)(C)c1cc(N2CCC(=O)NC2=O)cc2c(Nc3ccc(NS(C)(=O)=O)cc3)ncnc12 [Compound 6, N-(4-(8-tert-butyl-6-(2,4-dioxotetrahydropyrimidin-1(2H)-yl)quinazolin-4-ylamino)phenyl)methanesulfonamide]
- EC50 [1]: 100 to 1000 nM
- IC50 [2]: 10 to 100 nM
- IC50 [3]: 10 to 100 nM
- EC50 [4]: 100 to 1000 nM
